According to paper PMC6044955 (ACS Omega, 2017):

Experiments:
Format in all cases: cell-based
hα3β2 nAChR = hα3β2 nAChR (Homo sapiens, UniProt P17787+P32297)
hα3β4 nAChR = hα3β4 nAChR (Homo sapiens, UniProt P30926+P32297)
hα9α10 nAChR = hα9α10 nAChR (Homo sapiens, UniProt Q9GZZ6+Q9UGM1)
Sequence of hα9α10 nAChR (Q9UGM1 26-479 limits assumed): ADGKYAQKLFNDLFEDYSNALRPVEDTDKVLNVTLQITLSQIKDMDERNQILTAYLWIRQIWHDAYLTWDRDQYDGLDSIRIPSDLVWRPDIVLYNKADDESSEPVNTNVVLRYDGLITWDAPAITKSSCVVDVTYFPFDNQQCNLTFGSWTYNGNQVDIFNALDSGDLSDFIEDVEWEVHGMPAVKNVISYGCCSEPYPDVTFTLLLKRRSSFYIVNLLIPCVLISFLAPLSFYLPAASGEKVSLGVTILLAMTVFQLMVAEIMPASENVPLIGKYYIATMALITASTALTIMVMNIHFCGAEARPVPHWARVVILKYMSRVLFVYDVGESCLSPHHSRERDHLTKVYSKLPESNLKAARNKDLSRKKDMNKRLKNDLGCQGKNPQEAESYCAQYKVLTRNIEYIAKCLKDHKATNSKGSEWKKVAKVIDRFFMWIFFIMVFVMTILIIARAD
Sequence of hα9α10 nAChR (Q9GZZ6 25-450): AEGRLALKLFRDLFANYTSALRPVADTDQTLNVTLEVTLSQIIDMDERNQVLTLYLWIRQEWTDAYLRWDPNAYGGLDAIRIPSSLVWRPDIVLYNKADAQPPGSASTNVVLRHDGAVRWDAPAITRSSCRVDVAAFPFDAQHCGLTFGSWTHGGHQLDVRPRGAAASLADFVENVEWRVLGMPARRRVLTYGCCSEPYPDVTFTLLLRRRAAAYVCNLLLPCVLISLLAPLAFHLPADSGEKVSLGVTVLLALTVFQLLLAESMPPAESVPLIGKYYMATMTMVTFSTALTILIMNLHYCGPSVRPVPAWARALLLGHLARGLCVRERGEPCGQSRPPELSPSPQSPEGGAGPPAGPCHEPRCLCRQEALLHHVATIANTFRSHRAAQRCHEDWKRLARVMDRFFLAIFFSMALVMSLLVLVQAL

Sequence of hα3β2 nAChR (P32297 32-505): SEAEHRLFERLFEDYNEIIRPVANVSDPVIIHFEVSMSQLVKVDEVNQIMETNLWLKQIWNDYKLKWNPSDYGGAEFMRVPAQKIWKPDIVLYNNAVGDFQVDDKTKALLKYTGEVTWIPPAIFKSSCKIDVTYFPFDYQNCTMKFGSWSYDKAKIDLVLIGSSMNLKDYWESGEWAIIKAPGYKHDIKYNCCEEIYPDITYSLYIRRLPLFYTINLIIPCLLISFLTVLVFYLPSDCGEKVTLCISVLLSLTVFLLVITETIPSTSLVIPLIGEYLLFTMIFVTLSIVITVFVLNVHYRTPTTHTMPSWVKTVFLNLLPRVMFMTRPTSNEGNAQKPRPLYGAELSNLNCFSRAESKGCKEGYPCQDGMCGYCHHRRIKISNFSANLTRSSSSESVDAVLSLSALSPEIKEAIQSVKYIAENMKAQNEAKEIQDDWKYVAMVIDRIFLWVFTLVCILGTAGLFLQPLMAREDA
Sequence of hα3β2 nAChR (P17787 26-502): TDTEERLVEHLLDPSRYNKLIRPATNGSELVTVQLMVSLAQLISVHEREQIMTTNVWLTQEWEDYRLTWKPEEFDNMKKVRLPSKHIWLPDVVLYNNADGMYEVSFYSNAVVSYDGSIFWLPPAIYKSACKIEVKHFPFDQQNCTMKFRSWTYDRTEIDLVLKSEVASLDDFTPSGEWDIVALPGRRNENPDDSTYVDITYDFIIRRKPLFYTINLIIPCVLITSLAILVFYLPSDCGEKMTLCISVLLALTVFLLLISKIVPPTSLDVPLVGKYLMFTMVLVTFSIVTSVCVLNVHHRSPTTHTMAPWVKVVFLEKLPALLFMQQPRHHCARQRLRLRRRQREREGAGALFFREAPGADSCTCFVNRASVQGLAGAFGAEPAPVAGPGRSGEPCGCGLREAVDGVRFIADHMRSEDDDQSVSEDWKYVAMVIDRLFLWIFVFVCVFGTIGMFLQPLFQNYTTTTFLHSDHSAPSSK
Sequence of hα3β4 nAChR (P32297 32-505): as the sequence (P32297 32-505) above
Sequence of hα3β4 nAChR (P30926 22-498): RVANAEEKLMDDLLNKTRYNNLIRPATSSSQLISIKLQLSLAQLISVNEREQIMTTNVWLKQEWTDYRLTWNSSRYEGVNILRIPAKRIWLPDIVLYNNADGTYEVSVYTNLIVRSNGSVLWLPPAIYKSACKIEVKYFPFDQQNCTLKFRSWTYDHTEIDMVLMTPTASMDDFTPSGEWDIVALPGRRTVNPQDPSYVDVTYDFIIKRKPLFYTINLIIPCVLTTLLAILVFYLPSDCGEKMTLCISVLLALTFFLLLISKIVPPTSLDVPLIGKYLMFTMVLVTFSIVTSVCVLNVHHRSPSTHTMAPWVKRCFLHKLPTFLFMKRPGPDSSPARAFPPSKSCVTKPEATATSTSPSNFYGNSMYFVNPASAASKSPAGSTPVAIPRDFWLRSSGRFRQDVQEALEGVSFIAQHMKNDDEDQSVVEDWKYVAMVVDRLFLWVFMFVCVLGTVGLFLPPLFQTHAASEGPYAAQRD

## α-conotoxin BuIA
hα3β2 nAChR
  Inhibition of the ACh-evoked current amplitude at hα3β2 nAChR: > 90%
hα3β4 nAChR
  Inhibition of the ACh-evoked current amplitude at hα3β4 nAChR: > 90%

## α-conotoxin Vc1.1
hα9α10 nAChR
  Inhibition of ACh-evoked current at hα9α10 nAChR: complete inhibition
hα3β2 nAChR
  Inhibition of ACh-evoked current at hα3β2 nAChR: complete inhibition
